Test results published in patent publication US10035777B2, “Heterocyclic kinase inhibitors” (priority 2014, dated 2018).
Like-named read-outs stand apart in the source and are kept apart here.

Biological target: GST-Xa-hAAK1 (Homo sapiens (Human), UniProt Q2M2I8)
Assay: biochemical
Method: The assays were performed in U-bottom 384-well plates. […] The reactions were initiated by the combination of bacterially expressed, GST-Xa-hAAK1 with substrates and test compounds. The reactions were incubated at room temperature for 3 hours and terminated by adding 60 μl of 35 mM EDTA buffer to each sample. The reactions were analyzed on the Caliper LabChip 3000 (Caliper, Hopkinton, Mass.) by electrophoretic separation of the fluorescent substrate and phosphorylated product. […] Compounds were dissolved at 10 mM in dimethylsulfoxide (DMSO) and evaluated at eleven concentrations. IC50 values were derived by non-linear regression analysis.

[1] = ATP 22 μM, GST-Xa-hAAK1 3.5 nM, room temperature for 3 hours, Caliper LabChip 3000, read-out: AAK1 IC50

GST-Xa-hAAK1, sequence (Q2M2I8 whole entry): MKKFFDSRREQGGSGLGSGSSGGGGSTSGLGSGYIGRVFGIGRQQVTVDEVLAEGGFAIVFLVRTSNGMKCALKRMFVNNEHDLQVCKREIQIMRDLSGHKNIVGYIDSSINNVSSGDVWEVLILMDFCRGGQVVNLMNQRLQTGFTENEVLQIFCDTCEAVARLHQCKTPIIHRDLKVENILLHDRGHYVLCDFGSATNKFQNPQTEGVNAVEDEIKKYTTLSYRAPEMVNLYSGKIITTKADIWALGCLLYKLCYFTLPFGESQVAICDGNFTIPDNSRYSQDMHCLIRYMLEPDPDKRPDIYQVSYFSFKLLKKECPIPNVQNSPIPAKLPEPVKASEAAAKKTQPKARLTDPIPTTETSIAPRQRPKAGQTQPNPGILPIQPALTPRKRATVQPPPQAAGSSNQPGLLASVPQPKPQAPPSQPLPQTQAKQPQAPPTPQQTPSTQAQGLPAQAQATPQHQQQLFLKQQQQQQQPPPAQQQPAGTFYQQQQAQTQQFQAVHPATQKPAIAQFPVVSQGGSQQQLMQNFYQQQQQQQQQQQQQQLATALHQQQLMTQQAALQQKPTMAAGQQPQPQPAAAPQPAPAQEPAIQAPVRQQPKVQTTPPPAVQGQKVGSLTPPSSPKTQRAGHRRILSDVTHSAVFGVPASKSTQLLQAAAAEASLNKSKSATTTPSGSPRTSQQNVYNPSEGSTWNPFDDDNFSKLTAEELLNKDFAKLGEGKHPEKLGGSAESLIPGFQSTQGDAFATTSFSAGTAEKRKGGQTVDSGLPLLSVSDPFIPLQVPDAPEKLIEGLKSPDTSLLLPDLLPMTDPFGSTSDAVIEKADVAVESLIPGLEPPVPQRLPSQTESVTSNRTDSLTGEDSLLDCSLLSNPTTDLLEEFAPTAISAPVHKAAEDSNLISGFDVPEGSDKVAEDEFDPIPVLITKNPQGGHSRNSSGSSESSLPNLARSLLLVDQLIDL

| Structure (SMILES) | IC50 [1] | further results |
| --- | --- | --- |
| CC(C(N)c1nc2ccc(-c3ccncc3)cc2[nH]1)C(F)(F)F (single isomer, unassigned) [Example 52, 3,3,3-trifluoro-2-methyl-1-(6-(pyridin-4-yl)-1H-benzo[d]imidazol-2-yl)propan-1-amine] | – | IC50: 232 nM |
| CC(C(N)c1nc2ccc(-c3ccncc3)cc2[nH]1)C(F)(F)F (single isomer, unassigned) [Example 53, 3,3,3-trifluoro-2-methyl-1-(6-(pyridin-4-yl)-1H-benzo[d]imidazol-2-yl)propan-1-amine] | 521 nM | – |
| CC(C)C[C@@H](N)c1nc2cc(-c3ccncc3)ccc2[nH]1 [Example 1, (R)-3-methyl-1-(5-(pyridin-4-yl)-1H-benzo[d]imidazol-2-yl)butan-1-amine] | – | IC50: 37 nM |
| CC(C)C[C@H](N)c1nc2ccc(-c3ccncc3)cc2[nH]1 [Example 2, (S)-3-methyl-1-(6-(pyridin-4-yl)-1H-benzo[d]imidazol-2-yl)butan-1-amine] | 53 nM | – |
| CC(C)C[C@@H](N)c1nc2cc(-c3cc[nH]n3)ccc2[nH]1 [Example 3, (R)-1-(5-(1H-pyrazol-3-yl)-1H-benzo[d]imidazol-2-yl)-3-methylbutan-1-amine] | – | IC50: 56 nM |
| CC(C)C[C@@H](N)c1nc2cc(-c3cnco3)ccc2[nH]1 [Example 4, (R)-3-methyl-1-(5-(oxazol-5-yl)-1H-benzo[d]imidazol-2-yl)butan-1-amine] | – | IC50: 52 nM |
| CC(C)C[C@H](N)c1nc2cc(-c3cnco3)ccc2[nH]1 [Example 5, (S)-3-methyl-1-(5-(oxazol-5-yl)-1H-benzo[d]imidazol-2-yl)butan-1-amine] | 93 nM | – |
| CC(C)C[C@@H](N)c1nc2cc(-c3ccnc4[nH]ccc34)ccc2[nH]1 [Example 6, (R)-1-(5-(1H-pyrrolo[2,3-b]pyridin-4-yl)-1H-benzo[d]imidazol-2-yl)-3-methylbutan-1-amine] | – | IC50: 5 nM |
| CC(C)C[C@@H](N)c1nc2cc(-c3ncnc4[nH]ccc34)ccc2[nH]1 [Example 8, (R)-1-(5-(7H-pyrrolo[2,3-d]pyrimidin-4-yl)-1H-benzo[d]imidazol-2-yl)-3-methylbutan-1-amine] | 4 nM | – |
| CC(C)C[C@@H](N)c1nc2cc(-c3ccnc4ccccc34)ccc2[nH]1 [Example 9, (R)-3-methyl-1-(5-(quinolin-4-yl)-1H-benzo[d]imidazol-2-yl)butan-1-amine] | 13 nM | – |
| CC(C)C[C@@H](N)c1nc2cc(-c3ccncc3F)ccc2[nH]1 [Example 10, (R)-1-(5-(3-fluoropyridin-4-yl)-1H-benzo[d]imidazol-2-yl)-3-methylbutan-1-amine] | 44 nM | – |
| COc1cnccc1-c1ccc2[nH]c([C@H](N)CC(C)C)nc2c1 [Example 11, (R)-1-(5-(3-methoxypyridin-4-yl)-1H-benzo[d]imidazol-2-yl)-3-methylbutan-1-amine] | 93 nM | – |
| CC(C)C[C@@H](N)c1nc2cc(-c3ccnc(F)c3)ccc2[nH]1 [Example 12, (R)-1-(5-(2-fluoropyridin-4-yl)-1H-benzo[d]imidazol-2-yl)-3-methylbutan-1-amine] | 148 nM | – |
| COc1cc(-c2ccc3[nH]c([C@H](N)CC(C)C)nc3c2)ccn1 [Example 13, (R)-1-(5-(2-methoxypyridin-4-yl)-1H-benzo[d]imidazol-2-yl)-3-methylbutan-1-amine] | – | IC50 (read-out: AAK1 IC50): 171 nM |
| CC(C)C[C@@H](N)c1nc2cc(-c3ccnc(N(C)C)n3)ccc2[nH]1 [Example 14, (R)-4-(2-(1-amino-3-methylbutyl)-1H-benzo[d]imidazol-5-yl)-N,N-dimethylpyrimidin-2-amine] | 198 nM | – |
| CC(C)C[C@@H](N)c1nc2cc(-c3ccnc(C#N)c3)ccc2[nH]1 [Example 15, (R)-4-(2-(1-amino-3-methylbutyl)-1H-benzo[d]imidazol-5-yl)picolinonitrile] | 289 nM | – |
| CC(C)C[C@@H](N)c1nc2cc(-c3ccnc(N)n3)ccc2[nH]1 [Example 16, (R)-4-(2-(1-amino-3-methylbutyl)-1H-benzo[d]imidazol-5-yl)pyrimidin-2-amine] | 202 nM | – |
| CC(C)C[C@@H](N)c1nc2cc(-c3cc(F)nc(F)c3)ccc2[nH]1 [Example 17, (R)-1-(5-(2,6-difluoropyridin-4-yl)-1H-benzo[d]imidazol-2-yl)-3-methylbutan-1-amine] | 3940 nM | – |
| CC(C)C[C@@H](N)c1nc2cc(-c3ccnc(N)c3)ccc2[nH]1 [Example 18, (R)-4-(2-(1-amino-3-methylbutyl)-1H-benzo[d]imidazol-5-yl)pyridin-2-amine] | 19 nM | – |
| Cc1n[nH]c(C)c1-c1ccc2[nH]c([C@H](N)CC(C)C)nc2c1 [Example 19, (R)-1-(5-(3,5-dimethyl-1H-pyrazol-4-yl)-1H-benzo[d]imidazol-2-yl)-3-methylbutan-1-amine] | 41 nM | – |
| COc1cc(-c2ccc3[nH]c([C@H](N)CC(C)C)nc3c2)c(F)cn1 [Example 20, (R)-1-(5-(5-fluoro-2-methoxypyridin-4-yl)-1H-benzo[d]imidazol-2-yl)-3-methylbutan-1-amine] | 489 nM | – |

| Structure (SMILES) | IC50 [1] | further results |
| --- | --- | --- |
| COc1cc(-c2cnco2)cc2nc([C@H](N)CC(C)C)[nH]c12 [Example 21, (R)-1-(7-methoxy-5-(oxazol-5-yl)-1H-benzo[d]imidazol-2-yl)-3-methylbutan-1-amine] | 33 nM | – |
| COc1cc(-c2ccncc2)cc2nc([C@H](N)CC(C)C)[nH]c12 [Example 22, (R)-1-(7-methoxy-5-(pyridin-4-yl)-1H-benzo[d]imidazol-2-yl)-3-methylbutan-1-amine] | – | IC50: 52 nM |
| COc1cnccc1-c1cc(OC)c2[nH]c([C@H](N)CC(C)C)nc2c1 [Example 23, (R)-1-(7-methoxy-5-(3-methoxypyridin-4-yl)-1H-benzo[d]imidazol-2-yl)-3-methylbutan-1-amine] | 553 nM | – |
| COc1cc(-c2cc(OC)c3[nH]c([C@H](N)CC(C)C)nc3c2)ccn1 [Example 24, (R)-1-(7-methoxy-5-(2-methoxypyridin-4-yl)-1H-benzo[d]imidazol-2-yl)-3-methylbutan-1-amine] | 1590 nM | – |
| COc1cc(-c2ccncc2)cc2[nH]c(CCC(C)C)nc12 [Example 25, 2-isopentyl-4-methoxy-6-(pyridin-4-yl)-1H-benzo[d]imidazole] | 380 nM | – |
| COc1cc(-c2cnco2)cc2[nH]c(CCC(C)C)nc12 [Example 26, 5-(2-isopentyl-4-methoxy-1H-benzo[d]imidazol-6-yl)oxazole] | 217 nM | – |
| COc1cnccc1-c1cc2nc([C@H](N)CC(C)C)[nH]c2cc1OC [Example 27, (R)-1-(6-methoxy-5-(3-methoxypyridin-4-yl)-1H-benzo[d]imidazol-2-yl)-3-methylbutan-1-amine] | – | IC50 (read-out: AAK1 IC50): 2000 nM |
| COc1cc(-c2cc3nc([C@H](N)CC(C)C)[nH]c3cc2OC)ccn1 [Example 28, (R)-1-(6-methoxy-5-(2-methoxypyridin-4-yl)-1H-benzo[d]imidazol-2-yl)-3-methylbutan-1-amine] | – | IC50 (read-out: AAK1 IC50): 2000 nM |
| COc1cc2nc([C@H](N)CC(C)C)[nH]c2cc1-c1cnco1 [Example 29, (R)-1-(5-methoxy-6-(oxazol-5-yl)-1H-benzo[d]imidazol-2-yl)-3-methylbutan-1-amine] | – | IC50: 12 nM |
| CC(C)C[C@@H](N)c1nc2cc(-c3ccncc3)c(F)cc2[nH]1 [Example 30, (R)-1-(6-fluoro-5-(pyridin-4-yl)-1H-benzo[d]imidazol-2-yl)-3-methylbutan-1-amine] | 88 nM | – |
| CC(C)C[C@@H](N)c1nc2cc(F)c(-c3cnco3)cc2[nH]1 [Example 31, (R)-1-(5-fluoro-6-(oxazol-5-yl)-1H-benzo[d]imidazol-2-yl)-3-methylbutan-1-amine] | – | IC50 (read-out: AAK1 IC50): 32 nM |
| CCn1c([C@H](N)CC(C)C)nc2ccc(-c3cnco3)cc21 [Example 32, (R)-1-(1-ethyl-6-(oxazol-5-yl)-1H-benzo[d]imidazol-2-yl)-3-methylbutan-1-amine] | 450 nM | – |
| CCn1c([C@H](N)CC(C)C)nc2ccc(-c3ccncc3)cc21 [Example 33, (R)-1-(1-ethyl-6-(pyridin-4-yl)-1H-benzo[d]imidazol-2-yl)-3-methylbutan-1-amine] | – | IC50: 108 nM |
| CCn1c([C@H](N)CC(C)C)nc2ccc(-c3cn[nH]c3)cc21 [Example 34, (R)-1-(1-ethyl-6-(1H-pyrazol-4-yl)-1H-benzo[d]imidazol-2-yl)-3-methylbutan-1-amine] | 98 nM | – |
| COc1cnccc1-c1ccc2nc([C@H](N)CC(C)C)n(CC(F)(F)F)c2c1 [Example 35, (R)-1-(6-(3-methoxypyridin-4-yl)-1-(2,2,2-trifluoroethyl)-1H-benzo[d]imidazol-2-yl)-3-methylbutan-1-amine] | 25 nM | – |
| CC(C)C[C@@H](N)c1nc2ccc(-c3cnco3)cc2n1CC(F)(F)F [Example 36, (R)-3-methyl-1-(6-(oxazol-5-yl)-1-(2,2,2-trifluoroethyl)-1H-benzo[d]imidazol-2-yl)butan-1-amine] | 172 nM | – |
| CC(C)C[C@@H](N)c1nc2ccc(-c3ccncc3)cc2n1CC(F)(F)F [Example 37, (R)-3-methyl-1-(6-(pyridin-4-yl)-1-(2,2,2-trifluoroethyl)-1H-benzo[d]imidazol-2-yl)butan-1-amine] | – | IC50: 19 nM |
| COCCn1c([C@H](N)CC(C)C)nc2ccc(-c3ccncc3)cc21 [Example 38, (R)-1-(1-(2-methoxyethyl)-6-(pyridin-4-yl)-1H-benzo[d]imidazol-2-yl)-3-methylbutan-1-amine] | 531 nM | – |
| COCCn1c([C@H](N)CC(C)C)nc2ccc(-c3cnco3)cc21 [Example 39, (R)-1-(1-(2-methoxyethyl)-6-(oxazol-5-yl)-1H-benzo[d]imidazol-2-yl)-3-methylbutan-1-amine] | 6740 nM | – |
| CC(C)C[C@@H](N)c1nc2ccc(-c3ccncc3)cc2n1CCO [Example 40, (R)-2-(2-(1-amino-3-methylbutyl)-6-(pyridin-4-yl)-1H-benzo[d]imidazol-1-yl)ethanol] | 271 nM | – |
